The values that follow come from US11583570B2, “Use of autoinducer-related pathway in inducing apoptosis and anti-infective therapy” (TSINGHUA UNIVERSITY, priority 2017, dated 2023).

Assay type in all cases: cell-based
One experiment has as its target T1, TNFR1 (1-293) mutant (Homo sapiens, UniProt P19438).
T1 construct: human TNFR1 (1-293) mutant was amplified from human TNFR1 with specific primers and cloned into peGFP-N1 vector; expressed in transfected cells; host or cells: HeLa cells
T1 sequence (P19438 30-293): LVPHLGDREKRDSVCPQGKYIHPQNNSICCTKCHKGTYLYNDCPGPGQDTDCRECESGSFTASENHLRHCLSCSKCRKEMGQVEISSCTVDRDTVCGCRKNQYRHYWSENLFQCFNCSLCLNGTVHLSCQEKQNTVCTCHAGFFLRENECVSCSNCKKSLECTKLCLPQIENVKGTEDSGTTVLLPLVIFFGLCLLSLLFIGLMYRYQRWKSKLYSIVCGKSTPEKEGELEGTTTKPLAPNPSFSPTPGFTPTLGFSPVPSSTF
Description: Single molecule photo-bleaching step counting (MSFQ), TNFR1 in HELA cells. Conditions: DD-deleted TNFR1-eGFP. The text has this:
Then the cells were stimulated with HSLs, TNF α, or left untreated, and washed twice with PBS and fixed with 4% paraformaldehyde before imaging. GFP was excited at 488 nm with a laser power of 5 mW measured after the laser passing through the objective. […] The EM gain of the EMCCD camera was set at 300. Movies of 400 frames were acquired for each sample at a full-frame rate of 10 Hz. For imaging analysis, the background fluorescence was firstly subtracted from the movie acquired from the fixed cells using the rolling ball method in Image J software, and regions of interest on movies were selected manually according to the outline of cells. To analyze the bleaching steps, the fluorescence time courses of each fluorescent spots were first constructed by Image J plugin and bleaching steps were then counted manually.

Experiment [1] concerns transformed DC line DC2.4. Put plainly: Annexin V/PI apoptosis detection, DC2.4. Here is the method: Cell apoptosis was detected with Annexin V/PI apoptosis detection Kit. Briefly, cells were stimulated with HSLs or left untreated. 6 hrs later, cells were collected and stained with Annexin VFITC and PI for 15 min at RT, then the apoptotic effect was measured by flow cytometry. OT-I or OT-II splenocytes were pulsed with specific peptides or PMA and ionomycin mixture with or without HSLs or TNF α plus cycloheximide. 24 hrs later, cells and supernatants were collected separately. For OT-I activation, cells were stained with CD69 and CD8. For OT-II activation, cells were stained with CD69 and CD4. Cell activation was measured by flow cytometry. All supernatants were detected for IL-2 secretion by ELISA.

In the next experiment the test system is TNFR1. Put plainly: DTSSP cross-linking assay, TNFR1. The conditions noted are these: crosslinker DTSSP, non-reducing condition. The protocol: For FADD immunoprecipitation, 4 μg anti-mouse FADD pAb (Santa Cruz, H-181) were incubated with 100 μl protein A/G agarose for 2 hrs at RT. 3 million/ml purified CD4 T cells were stimulated with HSLs or left untreated. The cells were then collected and lysed with IP lysis buffer (50 mM HEPES pH 7.4, 150 mM NaCl, 1% NP-40, 1 mM EDTA, 1 mM PMSF, 1 mM NaF, 1 mM NaVO3 and protease inhibitor cocktails). The cell lysates were added into antibody-bead mixtures for 3 hrs at 4° C. Beads were then collected by low speed centrifugation (1000 g, 5 min) and washed 4 times with IP lysis buffer (300 mM NaCl added). After the last wash, pellets were suspended with 70 ul 2×SDS loading buffer and boiled for 5 min. For caspase 8 immunoprecipitation, 4 μg anti-Caspase 8 pAb (Santa Cruz, C-20) was incubated with 100 μl protein A/G agarose for 1 hr at RT. 3 million/ml H9 cells were treated with HSLs or left untreated. The samples were processed as in FADD IP. For cross-linking assay, CD4+ T cells isolated from C57BL/6 mice spleen or human THP-1 cells was stimulated with HSLs or left untreated, then cells were collected and cross-linked by 10 mM DTSSP at RT for 30 min and quenched with 1M Tris-HCl (pH7.5) for 15 min. […]

Regarding `CCCCCCCCCC(=O)CC(=O)N[C@H]1CCOC1=O` [3OC12 HSL, N-(3-oxo-dodecanoyl) homoserine lactone], at TNFR1 (1-293) mutant (untreated 7.1), the “three step bleaching frequency” value is 17.0+/−1.3%. Further, on TNFR1 (1-293) mutant (untreated 60.0), the “one step bleaching frequency” value is on record as 47.1%. In experiment [1], the “sensitivity to 3OC12 HSL” value is “sensitive”. Besides, in the experiment on TNFR1, the “amount of band with approximate 3 times the molecular weight of TNFR1 monomer” value is “rapidly increased”.
